From PubChem BioAssay (NCI)
Values joined by “and” are separate entries in the source; they are usually repeats but may differ in a detail not shown here. Equal entries are not always repeated.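 Where inhibition never reached the appropriate level, the endpoint shown equals the highest concentration tested. Otherwise, values were interpolated linearly from a five-concentration, 48-hour dose response in 96-well plates. Here, GI50 denotes the concentration required for 50% inhibition of growth. At the TGI there is no net growth.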

Key:
Test in all cases: NCI tumour cell line growth inhibition, 48 h
SR leukemia = tested on: SR leukemia
MDA-N = tested on: MDA-N
UO-31 renal = tested on: UO-31 renal
HT29 colon = tested on: HT29 colon
SK-OV-3 ovarian = tested on: SK-OV-3 ovarian
LOX IMVI melanoma = tested on: LOX IMVI melanoma
HS 578T breast = tested on: HS 578T breast
MCF7 breast = tested on: MCF7 breast
SF-295 CNS = tested on: SF-295 CNS
NCI/ADR-RES ovarian = tested on: NCI/ADR-RES ovarian
NCI-H226 lung = tested on: NCI-H226 lung
NCI-H522 lung = tested on: NCI-H522 lung
SW-620 colon = tested on: SW-620 colon
NCI-H460 lung = tested on: NCI-H460 lung
UACC-257 melanoma = tested on: UACC-257 melanoma
SNB-19 CNS = tested on: SNB-19 CNS
SF-268 CNS = tested on: SF-268 CNS

Compound	TGI (SR leukemia) [µM]	TGI (MDA-N) [µM]	TGI (UO-31 renal)	TGI (HT29 colon) [µM]	TGI (SK-OV-3 ovarian) [µM]	TGI (LOX IMVI melanoma)	TGI (HS 578T breast)	TGI (MCF7 breast) [µM]	TGI (SF-295 CNS)	TGI (NCI/ADR-RES ovarian)	TGI (NCI-H226 lung)	TGI (NCI-H522 lung)	TGI (SW-620 colon) [µM]	TGI (NCI-H460 lung) [µM]	TGI (UACC-257 melanoma)	TGI (SNB-19 CNS) [µM]	TGI (SF-268 CNS) [µM]	GI50 (SR leukemia) [µM]	GI50 (HS 578T breast) [µM]	GI50 (NCI/ADR-RES ovarian) [µM]
O=C(NC1(c2cc3ccccc3s2)CCCCC1)C1CCC1	> 100	> 100	> 100 µM	> 100	> 100	> 100 µM	83.7 µM	> 100	> 100 µM	> 100 µM	> 100 µM	> 100 µM	> 100	> 100	> 100 µM	> 100				
CC(C)OC(=O)c1ccc(CCC2=CC(=O)C=CC2=O)cc1	> 25.3	22.6	14.2 µM	33.1	> 88.6	14.2 µM	50 µM	47.7	90.9 µM	22.1 µM	33.5 µM	4.02 µM	19.1	54.1	25.6 µM	56.8	28.6			
CCOC(=O)c1nc2ccc(C(F)(F)F)cc2nc1NCc1ccc(OC)cc1	> 100	> 100	> 100 µM	> 100	> 100	> 100 µM	> 100 µM	> 100	> 100 µM	> 100 µM	> 100 µM	> 100 µM	> 100	> 100	> 100 µM	> 100	> 100			
COc1ccc(C2NC(=S)Nc3c2c(=O)oc2c3ccc3ccccc32)cc1 (centres undefined)	> 100	> 100	> 100 µM	> 100	> 100	> 100 µM	> 100 µM	> 100	> 100 µM	> 100 µM	> 100 µM	> 100 µM	> 100	> 100	> 100 µM	> 100	> 100			
CCOc1cc(C2SCC(=O)N2c2ccc(Oc3ccc(Cl)cc3)c(Cl)c2)ccc1O (centres undefined)	25.2	41.9	21.7 µM	31.8	37.3	38.7 µM	37.1 µM	56.4	34.1 µM	36.9 µM	31.1 µM	28.1 µM	37.7	39.1	33.3 µM	34.8	30.9			
Cc1cc(S(=O)(=O)Nc2n[nH]c(Nc3ccc(Cl)cc3)n2)c(S)cc1Cl	> 100	> 100	> 100 µM	> 100	> 100	> 100 µM	> 100 µM	> 100	> 100 µM	> 100 µM	> 100 µM	> 100 µM	> 100	> 100	> 100 µM	> 100	> 100			
CC(C)=CCC[C@]1(C)C=Cc2c(O)c3c(c(CC=C(C)C)c2O1)O[C@]12C(=C[C@@H]4CC1C(C)(C)O[C@@]2(C/C=C(/C)C(=O)O)C4=O)C3=O	0.939	4.59	3.73 µM	1.85	8.54	4.95 µM	9.68 µM	1.42	10 µM	6.96 µM	3.93 µM	2.32 µM	2.89	3.27	6.8 µM	7.36	3.91			
O=c1cc(N=Nc2ccc(Br)cc2)[nH]c(=S)[nH]1	74.1	> 100	> 100 µM	34.2	> 100	29.4 µM	> 100 µM	42.7	> 100 µM	> 100 µM	> 100 µM	38 µM	64.5	> 100	67.7 µM	> 100	> 100			
CN(C)CCCc1cccc2[nH]c3c(c12)CN(C)CC3	74.3	> 100	> 100 µM	> 100	> 100	> 100 µM	> 100 µM	> 100	> 100 µM	> 100 µM	> 100 µM	> 100 µM	> 100	> 100	> 100 µM	> 100	> 100			
Oc1ccc(O)c(CNc2ccc(C(O)C(F)(F)F)cc2)c1 (centres undefined)	83.6	25.9	21.9 µM	> 100	> 100	32.2 µM	> 100 µM	69.2	32.5 µM	> 100 µM	84.1 µM	5.67 µM	> 100	47.3	34.6 µM	> 100	66			
CC(NC(=O)/C(=C/c1ccccc1)NC(=O)c1ccccc1)C(=O)O (centres undefined)	> 100	> 100	> 100 µM	> 100	> 100	> 100 µM	> 100 µM	> 100	> 100 µM	> 100 µM	99.5 µM	> 100 µM	> 100	> 100	> 100 µM	> 100	> 100			
CCCCCCCCCCCCCCCCCc1cccc(OCOCCOC)c1C(=O)O	50	38.8	31.7 µM	35.7	28	61.8 µM	42.6 µM	43.2	35.5 µM	28.6 µM	32.3 µM	30 µM	44.3	41	36.6 µM	40.6	34.5			
CN(C)c1ccc(C=Nc2ccc(-c3nc4ccccc4[nH]3)cc2)cc1	65.1	> 100	> 100 µM	> 100	> 100	> 100 µM	> 100 µM	> 100	> 100 µM	27.7 µM	> 100 µM	> 100 µM	> 100	> 100	> 100 µM	> 100	> 100			
O=c1[nH]c2nnc(COc3ccc(Cl)cc3Cl)n2nc1Cc1ccccc1	> 100	> 100	> 100 µM	> 100	58.8	> 100 µM	> 100 µM	> 100	> 100 µM	> 100 µM	67.5 µM	> 100 µM	> 100	> 100	> 100 µM	> 100	> 100			
COC(=O)C1CCC(=O)N1CN(C(C)=O)c1ccccc1Cl (centres undefined)	> 100	> 100	> 100 µM	> 100	> 100	> 100 µM	> 100 µM	> 100	> 100 µM	> 100 µM	> 100 µM	> 100 µM	> 100	> 100	> 100 µM	> 100	> 100			
C=C=C(CC1CCCCC1=O)S(=O)(=O)c1ccccc1 (centres undefined)	> 6.03	> 10	> 10 µM	> 10	> 10	> 10 µM	> 10 µM	> 10	> 10 µM	> 10 µM	> 10 µM	6.71 µM	> 9.53	> 10	> 10 µM	> 10	> 10			
CC(ON(C(c1ccccc1)C(C)C)C(C)(C)C)c1ccccc1 (centres undefined)	67.6	81.3	43.3 µM	43.5	> 100	35.3 µM	64.1 µM	30	28.5 µM	56.7 µM	36.6 µM	44.4 µM	31.6	39.1	47.1 µM	35.9	52.2			
CC1=CC(=O)CC(C)(C)C1/C=C/C(C)=C/C=C/C(C)=C/C=C/C=C(C)/C=C/C=C(C)/C=C/C1C(C)=CC(=O)CC1(C)C (centres undefined)	> 100	> 100	> 100 µM	> 100	> 100	85.6 µM	> 100 µM	> 100	> 100 µM	> 100 µM	> 100 µM	52.1 µM	> 100	> 100	> 100 µM		> 100			
C#C[C@]1(O)CC[C@H]2[C@@H]3CCC4=C/C(=N/OCCN(C)C)CC[C@]4(C)[C@H]3CC[C@@]21C	67.5	35.1	> 100 µM	> 100	> 100	> 100 µM	> 100 µM	> 100	32.4 µM	> 100 µM	85.8 µM	62.6 µM	> 100	> 100	> 100 µM	> 100	> 100			
C=CCN(c1cc(OCc2ccccc2)c2[nH]cc(C)c2c1)S(C)(=O)=O	> 100	> 100	> 100 µM	> 100	> 100	> 100 µM	> 100 µM	> 100	> 100 µM	> 100 µM	> 100 µM	> 100 µM	> 100	> 100	> 100 µM	> 100	> 100			
O=C(O[C@@H](/C=C/c1ccccc1)P1(=O)N(Cc2ccccc2)[C@H]2CCCC[C@@H]2N1Cc1ccccc1)c1ccccc1	13.8	> 100	11.7 µM	> 100	77.1	14 µM	> 100 µM	6.77	> 100 µM	> 100 µM	13.2 µM	> 100 µM	> 100	5.26	9.43 µM	> 100	> 100			
O=[N+]([O-])c1cccc2nc3ccccc3c(NCCCn3ccnc3[N+](=O)[O-])c12	0.131	0.000244	0.00595 µM and 0.038 µM	0.00124	0.111	0.13 µM and 0.0216 µM	0.0899 µM and 0.0415 µM	0.00146	0.214 µM and 0.0415 µM	0.495 µM and 0.348 µM	0.00362 µM and 0.0351 µM	0.0167 µM and 0.0252 µM	0.103	0.0137	0.0208 µM and 0.0207 µM	0.0153		< 0.0001	0.0109	0.0125
CC(O)(Cc1ccccc1C#N)Cc1ccccc1C#N	> 100	> 100		> 100	> 100	> 100 µM	> 100 µM	> 100	> 100 µM	> 100 µM	> 100 µM	> 100 µM	> 100	> 100	> 100 µM	> 100	> 100			
O=c1ccn(CC2(CO)CCC2)c(=O)[nH]1	> 100	> 100	> 100 µM	> 100	> 100	> 100 µM	> 100 µM	> 100	> 100 µM	> 100 µM	> 100 µM	> 100 µM	> 100	> 100	> 100 µM		> 100			
CC(=O)O[C@H]1C(=O)[C@@]2(C)[C@H]([C@H](OC(=O)c3cccc([N+](=O)[O-])c3)[C@]3(O)C[C@H](OC(=O)[C@H](O)[C@@H](NC(=O)c4ccccc4)c4ccccc4)C(C)=C1C3(C)C)[C@]1(OC(C)=O)CO[C@@H]1C[C@@H]2O	0.113	0.0115	> 25 µM		> 25	> 25 µM	0.00761 µM	> 17.1	0.15 µM	> 25 µM	> 25 µM	0.0161 µM	> 25	> 25	> 25 µM	> 25	> 25			
CC(C)(O)/C=C\P(=O)(O)O	> 100	> 100		> 100	> 100	> 100 µM	> 100 µM	> 100	> 100 µM	> 100 µM	> 100 µM	> 100 µM	> 100	> 100	> 100 µM	> 100	> 100			
N#Cc1cc(C#N)c(N)nc1N	> 100	> 100	> 100 µM	> 100	> 100	> 100 µM	> 100 µM	> 100	> 100 µM	> 100 µM	> 100 µM	> 100 µM	> 100	> 100	> 100 µM	> 100				
